According to ChEMBL document CHEMBL1201862, “PubChem BioAssay data set” (2004):
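Grown in 96-well plates, cells were treated for 48 hours with each compound at five concentrations. Insufficient inhibition: endpoint recorded as highest concentration tested. Abbreviation: GI50, concentration required for 50% inhibition of growth.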 Calls of active or inactive are those of the source. No stated cut-off is given here; in the data, active = GI50 up to about 1.1 µM and inactive = higher. Peptide text beside a SMILES is read from it. * marks the point of attachment. Boc = CC(C)(C)OC(=O)*

Experiments:
Assay in all cases: NCI-60 cell line screen, 48 h
[1] = test system: BT-549
[2] = test system: COLO 205
[3] = test system: EKVX
[4] = test system: HCT-15
[5] = test system: HL-60
[6] = test system: HT-29
[7] = test system: IGROV-1
[8] = test system: K562
[9] = test system: MDA-MB-231
[10] = test system: MDA-N
[11] = test system: MOLT-4
[12] = test system: Malme-3M
[13] = test system: NCI-H226
[14] = test system: OVCAR-5
[15] = test system: PC-3
[16] = test system: RXF 393
[17] = test system: SF-295
[18] = test system: SNB-19
[19] = test system: U-251
[20] = test system: UO-31

Row | Compound | GI50 [1] | GI50 [2] | GI50 [3] | GI50 [4] [µM] | GI50 [5] | GI50 [6] | GI50 [7] | GI50 [8] | GI50 [9] | GI50 [10] | GI50 [11] | GI50 [12] | GI50 [13] | GI50 [14] | GI50 [15] | GI50 [16] | GI50 [17] | GI50 [18] | GI50 [19] | GI50 [20]
1 | O=C1c2ccccc2C(=O)[C@@]23O[C@@]12C1(Oc2cccc4cccc(c24)O1)[C@@H]1O[C@@H]1[C@@H]3O | 2.9 µM (inactive) | 9.91 µM (inactive) | 20.5 µM (inactive) | 5.01 | 1.66 µM (inactive) | 4.94 µM (inactive) | 13.6 µM (inactive) | 2.23 µM (inactive) | 14.8 µM (inactive) | 9.46 µM (inactive) | 2.7 µM (inactive) | 13.4 µM (inactive) | 8.39 µM (inactive) | 17.8 µM (inactive) | 15.2 µM (inactive) | 2.95 µM (inactive) | 12.9 µM (inactive) | 13.3 µM (inactive) | 7.1 µM (inactive) | 9.18 µM (inactive)
2 | CCOC(C[Se]CC(OCC)OCC)OCC | 31.8 µM (inactive) | > 100 µM (inactive) | > 100 µM (inactive) | 57.9 | 16.8 µM (inactive) | 64.9 µM (inactive) | 24.1 µM (inactive) | > 100 µM (inactive) | 52.5 µM (inactive) | 89.7 µM (inactive) | 37.8 µM (inactive) | 61.5 µM (inactive) | 21.5 µM (inactive) | 96.6 µM (inactive) | 37.9 µM (inactive) | 28.4 µM (inactive) | 26.1 µM (inactive) | 48.8 µM (inactive) | 14.6 µM (inactive) | 38.6 µM (inactive)
3 | CC(=O)OC1C(O)C(C)OC(OC2C(OC(=O)C3CCC4C(C3)OC3(CC(OC(=O)/C=C/c5ccccc5)C(C)CO3)C43CO3)OC(C)C(O)C2OC(C)=O)C1O (stereo unspecified) | 0.00358 µM (active) | 0.0078 µM (active) | 0.0148 µM (active) | 0.718 | 0.00507 µM (active) | 0.00689 µM (active) | 0.0134 µM (active) | 0.00622 µM (active) | 0.0203 µM (active) | 0.00269 µM (active) | 0.00468 µM (active) | 0.00507 µM (active) | 0.0142 µM (active) | 0.0291 µM (active) | 0.00513 µM (active) | 0.0319 µM (active) | 0.0262 µM (active) | 0.00617 µM (active) | 0.00679 µM (active) | 0.721 µM (active)
4 | COc1cccc2c1C(=O)OC2c1cccc2ccccc12 (stereo unspecified) | > 100 µM (inactive) | > 100 µM (inactive) | > 100 µM (inactive) | > 100 | > 46.6 µM (inactive) | > 100 µM (inactive) | > 100 µM (inactive) | > 100 µM (inactive) | 36.4 µM (inactive) | > 100 µM (inactive) | > 100 µM (inactive) | > 100 µM (inactive) | 92.9 µM (inactive) | > 100 µM (inactive) | > 100 µM (inactive) | 31.5 µM (inactive) | 33.6 µM (inactive) | 61.2 µM (inactive) | 67.5 µM (inactive) | > 100 µM (inactive)
5 | N#C/C(C(=O)CCl)=C1\Nc2ccccc2O1 | 2.17 µM (inactive) | 1.94 µM (inactive) | – | 2.01 | 2.43 µM (inactive) | 4.13 µM (inactive) | 1.83 µM (inactive) | 3.24 µM (inactive) | 2.89 µM (inactive) | 3.71 µM (inactive) | 3.35 µM (inactive) | 7.28 µM (inactive) | 2.3 µM (inactive) | – | 4.45 µM (inactive) | 1.85 µM (inactive) | 2.62 µM (inactive) | 7.98 µM (inactive) | 5.36 µM (inactive) | 3.62 µM (inactive)
6 | Clc1ccc(OCc2nnc3sc(-c4ccc(-c5ccc(Cl)cc5Cl)o4)nn23)cc1 | > 100 µM (inactive) | > 100 µM (inactive) | > 100 µM (inactive) | > 100 | > 100 µM (inactive) | > 100 µM (inactive) | > 100 µM (inactive) | > 100 µM (inactive) | > 100 µM (inactive) | > 100 µM (inactive) | > 100 µM (inactive) | > 100 µM (inactive) | > 100 µM (inactive) | > 100 µM (inactive) | > 100 µM (inactive) | 16.4 µM (inactive) | 89.1 µM (inactive) | > 100 µM (inactive) | 84.3 µM (inactive) | > 100 µM (inactive)
7 | C=C(C)C12OC3(c4ccccc4)OC1C1C4OC4(CO)C(O)C4(O)C(=O)C(C)=CC4C1(O3)C(C)C2OC(=O)/C=C/C=C/c1ccccc1 (stereo unspecified) | 0.203 µM (active) | < 0.0005 µM (active) | 0.188 µM (active) | 0.258 | < 0.0005 µM (active) | 0.0836 µM (active) | 0.537 µM (active) | < 0.0005 µM (active) | < 0.0005 µM (active) | < 0.0005 µM (active) | 0.113 µM (active) | 0.474 µM (active) | 0.228 µM (active) | 0.0802 µM (active) | 0.111 µM (active) | 0.207 µM (active) | < 0.0005 µM (active) | 0.713 µM (active) | 0.197 µM (active) | 0.0702 µM (active)
8 | COP1(=S)OCC2CCC[C@@H]2O1 (stereo partly specified) | > 100 µM (inactive) | > 100 µM (inactive) | – | > 100 | > 100 µM (inactive) | > 100 µM (inactive) | > 100 µM (inactive) | > 100 µM (inactive) | > 100 µM (inactive) | > 100 µM (inactive) | > 100 µM (inactive) | > 100 µM (inactive) | > 100 µM (inactive) | > 100 µM (inactive) | > 100 µM (inactive) | > 100 µM (inactive) | > 100 µM (inactive) | > 100 µM (inactive) | > 100 µM (inactive) | > 100 µM (inactive)
9 | Nc1ccc(S(=O)(=O)NCCS(=O)(=O)O)cc1 | > 100 µM (inactive) | – | > 100 µM (inactive) | > 100 | > 100 µM (inactive) | > 100 µM (inactive) | > 100 µM (inactive) | > 100 µM (inactive) | > 100 µM (inactive) | > 100 µM (inactive) | > 100 µM (inactive) | > 100 µM (inactive) | > 100 µM (inactive) | > 100 µM (inactive) | > 100 µM (inactive) | > 100 µM (inactive) | > 100 µM (inactive) | > 100 µM (inactive) | > 100 µM (inactive) | > 100 µM (inactive)
10 | CN(C)N1C(=O)CC2(CCN(CCCC(=O)c3ccc(F)cc3)CC2)C1=O | > 100 µM (inactive) | > 100 µM (inactive) | – | > 100 | > 100 µM (inactive) | > 100 µM (inactive) | > 100 µM (inactive) | > 100 µM (inactive) | > 100 µM (inactive) | > 100 µM (inactive) | > 100 µM (inactive) | > 100 µM (inactive) | > 100 µM (inactive) | > 100 µM (inactive) | > 100 µM (inactive) | > 100 µM (inactive) | > 100 µM (inactive) | > 100 µM (inactive) | > 100 µM (inactive) | > 100 µM (inactive)
11 | CCOCC(NC(=O)C(CC(C)C)NC(=O)OC(C)(C)C)C(N)=O (stereo not drawn) (Boc-Leu-Ser(Et)-NH2; configuration not given here) | > 100 µM (inactive) | > 100 µM (inactive) | > 100 µM (inactive) | > 100 | > 100 µM (inactive) | > 100 µM (inactive) | > 100 µM (inactive) | – | > 100 µM (inactive) | > 100 µM (inactive) | > 100 µM (inactive) | > 100 µM (inactive) | > 100 µM (inactive) | > 100 µM (inactive) | > 100 µM (inactive) | > 100 µM (inactive) | > 100 µM (inactive) | > 100 µM (inactive) | 1.46 µM (inactive) | > 100 µM (inactive)
12 | COc1ccc(C2C(C#N)=C(S)N(C3OC(COC(C)=O)C(OC(C)=O)C(OC(C)=O)C3OC(C)=O)C(c3ccccc3)=C2C(C)=O)cc1 (stereo unspecified) | > 100 µM (inactive) | > 100 µM (inactive) | – | > 100 | 63.8 µM (inactive) | > 100 µM (inactive) | > 100 µM (inactive) | 37.5 µM (inactive) | > 100 µM (inactive) | 58.5 µM (inactive) | 64.4 µM (inactive) | > 100 µM (inactive) | > 100 µM (inactive) | > 100 µM (inactive) | > 100 µM (inactive) | 78.9 µM (inactive) | > 100 µM (inactive) | > 100 µM (inactive) | > 100 µM (inactive) | 21.6 µM (inactive)
13 | Nc1ccc(COC(O)CN2CCCCC2)cc1[N+](=O)[O-] (stereo unspecified) | > 100 µM (inactive) | > 100 µM (inactive) | – | > 100 | > 100 µM (inactive) | > 100 µM (inactive) | > 100 µM (inactive) | > 100 µM (inactive) | > 100 µM (inactive) | > 100 µM (inactive) | > 100 µM (inactive) | > 100 µM (inactive) | > 100 µM (inactive) | > 100 µM (inactive) | > 100 µM (inactive) | > 100 µM (inactive) | > 100 µM (inactive) | > 100 µM (inactive) | > 100 µM (inactive) | > 100 µM (inactive)
14 | CO/C(N)=C(C#N)/N=C/c1ccco1 | > 100 µM (inactive) | > 100 µM (inactive) | > 100 µM (inactive) | > 100 | > 100 µM (inactive) | > 100 µM (inactive) | > 100 µM (inactive) | > 100 µM (inactive) | > 100 µM (inactive) | > 100 µM (inactive) | > 100 µM (inactive) | > 100 µM (inactive) | > 100 µM (inactive) | > 100 µM (inactive) | > 100 µM (inactive) | > 100 µM (inactive) | > 100 µM (inactive) | – | > 100 µM (inactive) | > 100 µM (inactive)
